As usually defined, the pIC50 is −log10 of the IC50, conventionally taken in molar units.

The test system of assay [1] is B16 mouse melanoma cells. In words: cell viability in the B16 cell-based assay (Viability, B16 IC50). The following applies: read-out: Viability, B16 IC50, concentration causing 50% cell death, values greater than 10 represent a lack of cell death. In short, it runs like this: (§1)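 Cell death was scored within the cell-based GM3 experiment for each line. The viability value is the concentration producing 50% death, and numbers exceeding 10 signify no cytotoxicity.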

Assay [2] relates to C32 human melanoma cells. As to the kind of experiment: cell viability in the C32 cell-based assay (Viability, C32 IC50). The following applies: read-out: Viability, C32 IC50, concentration causing 50% cell death, values greater than 10 represent a lack of cell death. Put shortly:
as §1

In assay [3] the target is T1, glucosylceramide synthase (Homo sapiens, UniProt Q16739).
T1 construct: Microsomes were isolated from A375 human melanoma cells; endogenous in cells; host or cells: A375 human melanoma cells (microsomal fraction, 100,000 g pellet)
T1 sequence (Q16739 1-394): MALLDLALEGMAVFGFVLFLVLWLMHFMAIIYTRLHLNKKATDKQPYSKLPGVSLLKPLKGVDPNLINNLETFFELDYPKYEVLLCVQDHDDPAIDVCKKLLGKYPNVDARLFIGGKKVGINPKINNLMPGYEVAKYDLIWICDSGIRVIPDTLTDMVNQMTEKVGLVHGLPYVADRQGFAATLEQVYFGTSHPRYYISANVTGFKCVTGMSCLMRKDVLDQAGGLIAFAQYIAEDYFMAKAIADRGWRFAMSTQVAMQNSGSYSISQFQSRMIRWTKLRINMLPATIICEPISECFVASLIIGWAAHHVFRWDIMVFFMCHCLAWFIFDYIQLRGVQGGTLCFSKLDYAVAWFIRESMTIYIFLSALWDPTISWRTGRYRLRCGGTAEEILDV
As to the kind of experiment: microsomal assay measuring conversion of ceramide to glucosylceramide by HPLC (GCS IC50). The following applies: concentration causing 50% inhibition of glucosylceramide synthase activity. The assay is classed as biochemical. In short, it runs like this: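 IC50 is the compound concentration halving glucosylceramide synthase activity. Activity was measured in microsomes, with HPLC quantifying glucosylceramide formed from ceramide.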

The test system of assay [4] is GM3 expression on the cell surface, B16 mouse melanoma cells. As to the kind of experiment: cell based phenotypic assay, cell surface GM3 by antibody mediated immunofluorescence, B16 (GM3 B16 IC50). The following applies: Mus musculus, 50% inhibition of GM3 expression on the cell surface. Put shortly: (§2)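 Two melanoma lines, mouse B16 and human C32, were treated and surface GM3 quantified by antibody immunofluorescence for IC50. A parallel viability readout gives the concentration killing 50% of cells, with values over 10 indicating no cell death.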

Assay [5] has as its system GM3 expression on the cell surface, C32 human melanoma cells. As to the kind of experiment: cell based phenotypic assay, cell surface GM3 by antibody mediated immunofluorescence, C32 (GM3 C32 IC50). The conditions noted are these: Homo sapiens, 50% inhibition of GM3 expression on the cell surface. Put shortly:
as §2

Where [6] appears, read: B16 mouse melanoma cells, read-out: GM3 B16 IC50.
Setting [7] is: C32 human melanoma cells, read-out: GM3 C32 IC50.

pIC50: −log10 of the molar value. Where two headings read alike, the source gives them in different places.

With `O=C(OC1CN2CCC1CC2)N1CCN(c2cccc(-c3ccccc3)c2)CC1` (stereo not drawn) [Example 18, Quinuclidin-3-yl 4-([1,1′-biphenyl]-3-yl)piperazine-1-carboxylate], the negative-log IC50 (pIC50) is 5.08 in assay [1] (B16 cells); at most 5.00 in assay [2] (C32 cells); 6.26 in assay [3]; 5.69 in assay [4] (read-out: GM3 B16 IC50, B16 mouse melanoma cells); 6.25 in assay [5] (read-out: GM3 C32 IC50, C32 human melanoma cells).

As to `O=C(OC1CCN2CCC1CC2)N1CCN(c2cccc(-c3ccccc3)c2)CC1` (stereo not drawn) [Example 19, 1-Azabicyclo[3.2.2]nonan-4-yl 4-([1,1′-biphenyl]-3-yl)piperazine-1-carboxylate], the negative-log IC50 (pIC50) in assay [1] (Mus musculus, B16, B16 cells) was 5.15; in assay [2] (Homo sapiens, C32, C32 cells), 5.04; in assay [3] it was 5.57; in assay [4] (setting [6]), 5.83; in assay [5] (setting [7]), 6.34.

As to `O=C(OC1CC2CCN(CC2)C1)N1CCN(c2cccc(-c3ccccc3)c2)CC1` (stereo not drawn) [Example 20, 1-Azabicyclo[3.2.2]nonan-3-yl 4-([1,1′-biphenyl]-3-yl)piperazine-1-carboxylate], the negative logarithm of the IC50 (pIC50) is 5.11 in assay [1] (Mus musculus, B16, B16 cells); at most 4.82 in assay [2] (Homo sapiens, C32, C32 cells); 4.78 in assay [3]; 5.35 in assay [4] (setting [6]); 4.97 in assay [5] (setting [7]).

`CCC1(NC(=O)N2CCN(c3cccc(-c4ccccc4)c3)CC2)CN2CCC1CC2` (stereo not drawn) [Example 21, 4-([1,1′-Biphenyl]-3-yl)-N-(3-ethylquinuclidin-3-yl)piperazine-1-carboxamide]: the pIC50 in assay [1] (Mus musculus, B16, B16 cells) is 5.14; in assay [2] (Homo sapiens, C32, C32 cells), 5.50; in assay [3], 6.54; in assay [4] (setting [6]) it was 6.77; in assay [5] (setting [7]) it was 7.60.

As for `CCC1(NC(=O)N2CCN(c3cccc(-c4ccc(F)cc4)c3)CC2)CN2CCC1CC2` (stereo not drawn) [Example 23, N-(3-Ethylquinuclidin-3-yl)-4-(4′-fluoro-[1,1′-biphenyl]-3-yl)piperazine-1-carboxamide], the negative-log IC50 (pIC50) in assay [1] (Mus musculus, B16, B16 cells) was 5.15; in assay [2] (Homo sapiens, C32, C32 cells) it was 5.50; in assay [3] it was 5.80; in assay [4] (setting [6]), 6.45; in assay [5] (setting [7]), 7.04.

Consider `O=C(OC1CCN2CCC1CC2)N1CCN(c2cccc(-c3ccc(F)cc3)c2)CC1` (stereo not drawn) [Example 24, 1-Azabicyclo[3.2.2]nonan-4-yl 4-(4′-fluoro-[1,1′-biphenyl]-3-yl)piperazine-1-carboxylate], for which the pIC50 was 5.44 in assay [1] (Mus musculus, B16, B16 cells); 5.40 in assay [2] (Homo sapiens, C32, C32 cells); 5.02 in assay [3]; 5.77 in assay [4] (setting [6]); 5.97 in assay [5] (setting [7]).

For the molecule `CC1(NC(=O)N2CCN(c3cccc(-c4ncccn4)c3)CC2)CCN2CCC1CC2` (stereo not drawn) [Example 26, N-(4-Methyl-1-azabicyclo[3.2.2]nonan-4-yl)-4-(3-(pyrimidin-2-yl)phenyl)piperazine-1-carboxamide], the pIC50 in assay [1] (Mus musculus, B16, B16 cells) is at most 5.00; in assay [2] (Homo sapiens, C32, C32 cells), at most 5.00; in assay [3] it was 5.16; in assay [4] (setting [6]) it was below 5.00; in assay [5] (setting [7]), 6.44.

On to `CC(C)c1cccc(N2CCN(C(=O)NC3(C)CCN4CCC3CC4)CC2)c1` (stereo not drawn) [Example 28, 4-(3-Isopropylphenyl)-N-(4-methyl-1-azabicyclo[3.2.2]nonan-4-yl)piperazine-1-carboxamide], for which the negative-log IC50 (pIC50) in assay [1] (Mus musculus, B16, B16 cells) is at most 5.00; in assay [2] (Homo sapiens, C32, C32 cells), 5.50; in assay [3], 5.80; in assay [4] (setting [6]) it was 5.84; in assay [5] (setting [7]), 7.06.

As for `CC1(NC(=O)N2CCN(c3cccc(C4CCCCC4)c3)CC2)CCN2CCC1CC2` (stereo not drawn) [Example 29, 4-(3-Cyclohexylphenyl)-N-(4-methyl-1-azabicyclo[3.2.2]nonan-4-yl)piperazine-1-carboxamide], the negative logarithm of the IC50 (pIC50) was 5.11 in assay [1] (Mus musculus, B16, B16 cells); 6.00 in assay [2] (Homo sapiens, C32, C32 cells); 6.51 in assay [3]; 5.58 in assay [4] (setting [6]); 7.42 in assay [5] (setting [7]).

Source of the values: patent publication US12060349B2, “Glucosylceramide synthase inhibitors” (Genzyme Corporation, priority 2012, dated 2024).
